ChEMBL document CHEMBL1201862, “PubChem BioAssay data set” (2004)
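Cultured in 96-well plates, cells were exposed to test compound for 48 hours across five concentrations. GI50 is the concentration that inhibits growth by half.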 Active and inactive are the calls of the source. Cut-off read from the data, not from the text of the source: active = GI50 up to about 1.1 µM and inactive = higher.

Assays:
Test in all cases: DTP human tumour cell line panel, 48 h
786-0 = system: 786-0
A498 = system: A498
A549 = system: A549
ACHN = system: ACHN
CAKI-1 = system: CAKI-1
CCRF-CEM = system: CCRF-CEM
COLO 205 = system: COLO 205
DU-145 = system: DU-145
EKVX = system: EKVX
HCC 2998 = system: HCC 2998
HCT-116 = system: HCT-116
HCT-15 = system: HCT-15
HL-60 = system: HL-60
HOP-62 = system: HOP-62
HOP-92 = system: HOP-92
HT-29 = system: HT-29
Hs-578T = system: Hs-578T
IGROV-1 = system: IGROV-1
K562 = system: K562
KM12 = system: KM12
LOX IMVI = system: LOX IMVI
MCF7 = system: MCF7
MDA-MB-231 = system: MDA-MB-231
MDA-MB-435 = system: MDA-MB-435
MDA-N = system: MDA-N
MOLT-4 = system: MOLT-4
Malme-3M = system: Malme-3M
NCI-H226 = system: NCI-H226
NCI-H23 = system: NCI-H23
NCI-H460 = system: NCI-H460
NCI-H522 = system: NCI-H522
NCI/ADR-RES = system: NCI/ADR-RES
OVCAR-3 = system: OVCAR-3
OVCAR-4 = system: OVCAR-4
OVCAR-5 = system: OVCAR-5
OVCAR-8 = system: OVCAR-8
PC-3 = system: PC-3
RPMI-8226 = system: RPMI-8226
RXF 393 = system: RXF 393
SF-268 = system: SF-268
SF-295 = system: SF-295
SK-MEL-28 = system: SK-MEL-28
SK-MEL-2 = system: SK-MEL-2
SK-MEL-5 = system: SK-MEL-5
SK-OV-3 = system: SK-OV-3
SN12C = system: SN12C
SNB-19 = system: SNB-19
SNB-75 = system: SNB-75
SW-620 = system: SW-620
T47D = system: T47D
TK-10 = system: TK-10
U-251 = system: U-251
UACC-257 = system: UACC-257
UACC-62 = system: UACC-62
UO-31 = system: UO-31
BT-549 = system: BT-549
M14 = system: M14
SF-539 = system: SF-539
SR = system: SR

CN(CCCNCc1ccccn1)Cc1ccccc1O
GI50 (786-0): 52.7 µM (inactive) | GI50 (A498): > 100 µM (inactive) | GI50 (A549): 37.1 µM (inactive) | GI50 (ACHN): 13.9 µM (inactive) | GI50 (CAKI-1): 42.8 µM (inactive) | GI50 (CCRF-CEM): 50.8 µM (inactive) | GI50 (COLO 205): 29 µM (inactive) | GI50 (DU-145): 40.1 µM (inactive) | GI50 (EKVX): 33.4 µM (inactive) | GI50 (HCC 2998): 25.1 µM (inactive) | GI50 (HCT-116): 60.4 µM (inactive) | GI50 (HCT-15): 6.4 µM | GI50 (HL-60): 2.74 µM (inactive) | GI50 (HOP-62): 12.4 µM (inactive) | GI50 (HOP-92): 42.9 µM (inactive) | GI50 (HT-29): 22 µM (inactive) | GI50 (Hs-578T): > 100 µM (inactive) | GI50 (IGROV-1): 20.2 µM (inactive) | GI50 (K562): 39.8 µM (inactive) | GI50 (KM12): 28.5 µM (inactive) | GI50 (LOX IMVI): 23.1 µM (inactive) | GI50 (MCF7): 43 µM (inactive) | GI50 (MDA-MB-231): > 100 µM (inactive) | GI50 (MDA-MB-435): 44.4 µM (inactive) | GI50 (MDA-N): 58.2 µM (inactive) | GI50 (MOLT-4): 13.7 µM (inactive) | GI50 (Malme-3M): 27.8 µM (inactive) | GI50 (NCI-H226): 15.4 µM (inactive) | GI50 (NCI-H23): 14.4 µM (inactive) | GI50 (NCI-H460): 7.19 µM (inactive) | GI50 (NCI-H522): 56.2 µM (inactive) | GI50 (NCI/ADR-RES): 16.3 µM (inactive) | GI50 (OVCAR-3): 24.9 µM (inactive) | GI50 (OVCAR-4): 31.8 µM (inactive) | GI50 (OVCAR-5): 32 µM (inactive) | GI50 (OVCAR-8): 26.8 µM (inactive) | GI50 (PC-3): 65.3 µM (inactive) | GI50 (RPMI-8226): 36.3 µM (inactive) | GI50 (RXF 393): 16.7 µM (inactive) | GI50 (SF-268): 57.9 µM (inactive) | GI50 (SF-295): 20.4 µM (inactive) | GI50 (SK-MEL-28): > 100 µM (inactive) | GI50 (SK-MEL-2): 35.2 µM (inactive) | GI50 (SK-MEL-5): 21 µM (inactive) | GI50 (SK-OV-3): 45.2 µM (inactive) | GI50 (SN12C): 71.1 µM (inactive) | GI50 (SNB-19): 21.6 µM (inactive) | GI50 (SNB-75): > 100 µM (inactive) | GI50 (SW-620): > 100 µM (inactive) | GI50 (T47D): 34 µM (inactive) | GI50 (TK-10): 7.21 µM (inactive) | GI50 (U-251): 96.8 µM (inactive) | GI50 (UACC-257): 24.3 µM (inactive) | GI50 (UACC-62): 18.7 µM (inactive) | GI50 (UO-31): 3.73 µM (inactive)

O=C(NI1OC(=O)c2ccccc21)c1ccc(Cl)cc1
GI50 (786-0): > 100 µM (inactive) | GI50 (A498): > 100 µM (inactive) | GI50 (A549): > 100 µM (inactive) | GI50 (ACHN): > 100 µM (inactive) | GI50 (BT-549): > 100 µM (inactive) | GI50 (CAKI-1): > 100 µM (inactive) | GI50 (CCRF-CEM): 85.5 µM (inactive) | GI50 (COLO 205): > 100 µM (inactive) | GI50 (DU-145): > 100 µM (inactive) | GI50 (EKVX): > 100 µM (inactive) | GI50 (HCC 2998): 76.2 µM (inactive) | GI50 (HCT-116): > 100 µM (inactive) | GI50 (HCT-15): 96.6 µM | GI50 (HL-60): > 100 µM (inactive) | GI50 (HOP-62): > 100 µM (inactive) | GI50 (HOP-92): > 100 µM (inactive) | GI50 (HT-29): > 100 µM (inactive) | GI50 (IGROV-1): > 100 µM (inactive) | GI50 (K562): 28.4 µM (inactive) | GI50 (KM12): > 100 µM (inactive) | GI50 (LOX IMVI): > 100 µM (inactive) | GI50 (M14): > 100 µM (inactive) | GI50 (MCF7): > 100 µM (inactive) | GI50 (MDA-MB-231): > 100 µM (inactive) | GI50 (MDA-MB-435): > 100 µM (inactive) | GI50 (NCI-H226): 60.4 µM (inactive) | GI50 (NCI-H23): > 100 µM (inactive) | GI50 (NCI-H460): > 100 µM (inactive) | GI50 (NCI-H522): 14.1 µM (inactive) | GI50 (NCI/ADR-RES): > 100 µM (inactive) | GI50 (OVCAR-3): > 100 µM (inactive) | GI50 (OVCAR-4): > 100 µM (inactive) | GI50 (OVCAR-5): > 100 µM (inactive) | GI50 (OVCAR-8): > 100 µM (inactive) | GI50 (PC-3): > 100 µM (inactive) | GI50 (RPMI-8226): > 100 µM (inactive) | GI50 (RXF 393): > 100 µM (inactive) | GI50 (SF-268): > 100 µM (inactive) | GI50 (SF-295): > 100 µM (inactive) | GI50 (SF-539): > 100 µM (inactive) | GI50 (SK-MEL-28): > 100 µM (inactive) | GI50 (SK-MEL-2): > 100 µM (inactive) | GI50 (SK-MEL-5): > 100 µM (inactive) | GI50 (SK-OV-3): > 100 µM (inactive) | GI50 (SN12C): > 100 µM (inactive) | GI50 (SNB-75): > 100 µM (inactive) | GI50 (SW-620): 34.4 µM (inactive) | GI50 (T47D): > 100 µM (inactive) | GI50 (TK-10): > 100 µM (inactive) | GI50 (U-251): 45.7 µM (inactive) | GI50 (UACC-257): > 100 µM (inactive) | GI50 (UACC-62): 51.6 µM (inactive) | GI50 (UO-31): 43.2 µM (inactive)

Cc1ccc(S(=O)(=O)n2cc(-c3cc(C(F)(F)F)ccn3)c3cc(Br)ccc32)cc1
GI50 (786-0): 13.9 µM (inactive) | GI50 (A498): 18.2 µM (inactive) | GI50 (A549): 21.1 µM (inactive) | GI50 (ACHN): 11.4 µM (inactive) | GI50 (CAKI-1): 16.3 µM (inactive) | GI50 (CCRF-CEM): > 100 µM (inactive) | GI50 (COLO 205): 59.2 µM (inactive) | GI50 (DU-145): 17.9 µM (inactive) | GI50 (EKVX): 29.6 µM (inactive) | GI50 (HCC 2998): 16.4 µM (inactive) | GI50 (HCT-116): 14.5 µM (inactive) | GI50 (HCT-15): 21.9 µM | GI50 (HL-60): > 100 µM (inactive) | GI50 (HOP-62): 11.8 µM (inactive) | GI50 (HOP-92): 13.7 µM (inactive) | GI50 (HT-29): 49.1 µM (inactive) | GI50 (Hs-578T): 15 µM (inactive) | GI50 (K562): > 100 µM (inactive) | GI50 (KM12): 38.9 µM (inactive) | GI50 (LOX IMVI): 28.1 µM (inactive) | GI50 (M14): 27.7 µM (inactive) | GI50 (MCF7): 5.26 µM (inactive) | GI50 (MDA-MB-231): 17.3 µM (inactive) | GI50 (MDA-MB-435): 46.2 µM (inactive) | GI50 (MDA-N): 45.2 µM (inactive) | GI50 (MOLT-4): > 100 µM (inactive) | GI50 (Malme-3M): 20.7 µM (inactive) | GI50 (NCI-H226): 19 µM (inactive) | GI50 (NCI-H23): 14.5 µM (inactive) | GI50 (NCI-H460): 36.5 µM (inactive) | GI50 (NCI/ADR-RES): 34.2 µM (inactive) | GI50 (OVCAR-3): 12.2 µM (inactive) | GI50 (OVCAR-4): 12.3 µM (inactive) | GI50 (OVCAR-5): 50 µM (inactive) | GI50 (PC-3): 18.2 µM (inactive) | GI50 (RPMI-8226): 69.2 µM (inactive) | GI50 (RXF 393): 17.8 µM (inactive) | GI50 (SF-268): 27.4 µM (inactive) | GI50 (SF-295): 17.9 µM (inactive) | GI50 (SF-539): 17.1 µM (inactive) | GI50 (SK-MEL-28): 20.7 µM (inactive) | GI50 (SK-MEL-2): 3.07 µM (inactive) | GI50 (SK-MEL-5): 24.3 µM (inactive) | GI50 (SK-OV-3): 15.5 µM (inactive) | GI50 (SN12C): 28.3 µM (inactive) | GI50 (SNB-19): 16 µM (inactive) | GI50 (SR): 54.6 µM (inactive) | GI50 (SW-620): 74.6 µM (inactive) | GI50 (T47D): 1.55 µM (inactive) | GI50 (TK-10): 18.7 µM (inactive) | GI50 (U-251): 15.5 µM (inactive) | GI50 (UACC-257): 27 µM (inactive) | GI50 (UACC-62): 16.1 µM (inactive) | GI50 (UO-31): 11.2 µM (inactive)
